Results published in patent US20030148963A1 (priority 2000, published 2003).
Marks after values point to notes of the source that are not given here.

Tests used:
IL-6 = assay type: cell-based, NMRI mice; conditions: spleen cells from non-infected in vivo etoposide-treated mice; mean ± SEM, four mice
[1] = test system: S. aureus-induced arthritis; experiment: Histopathological and immunohistochemical examination of joints, S. aureus arthritis; assay type: in vivo, NMRI mice
Description: The mice were sacrificed 6 days after bacterial inoculation One front and one hind paw from each animal in both groups (etoposide-treated and controls) were removed. Histopathological examination was performed after routine fixation, decalcification, paraffin embedding, and staining with hematoxylin and eosin. All the slides were coded and the joints were studied with regard to synovial hypertrophy (defined as a synovial membrane thickness of more than two cell layers), pannus formation (synovial tissue overlaying the joint cartilage), and cartilage and bone destruction.
In another experiment, mice were killed by cervical dislocation 6 days after bacterial inoculation, all four limbs were removed and demineralized by a procedure detailed in an earlier report. The demineralized specimens were mounted on cryostat chucks, frozen in isopentane prechilled by liquid nitrogen, and kept at −70° C. until cryosectioned. Six μm-thick sections were cut frontally to permit simultaneous inspection of most joints within the paw. All sections were fixed in cold acetone for 5 min, washed in PBS, and depleted of endogenous peroxidase by treatment with 0.3% H2O2 for 5 min. The sections were incubated overnight in a humid atmosphere at +4° C. with 50 μl portions of unlabelled rat monoclonal antibody specific for macrophages (Mac-3, clone M3/84 from PharMingen), diluted in PBS containing 1% BSA. Biotin-labelled rabbit antl-rat Ig diluted in PBS-BSA was used as secondary antibody. Binding of secondary antibodies was detected by stepwise incubation with avidin-biotin-peroxidase complexes (ABC) and a buffert containing 3-amino-9-ethyl-carbazole and H2O2. All sections were counterstained with Mayer's hematoxylin.

[2] = test system: granulocyte mediated inflammatory response; experiment: Olive oil induced inflammation (foot-pad swelling); assay type: in vivo; conditions: non-infected mice, n=6, 24 h after injection; no difference to controls
Description: Olive oil induces in vivo a strong granulocyte mediated but T cell independent inflammatory response. Inflammation was induced by injection of 30 μl olive oil (Apoteksbolaget AB, Göteborg, Sweden) intradermally in hind foot-pad. […] Foot-pad swelling was registered 24 h after injection using an Oditest spring caliper. The intensity of the olive oil induced inflammation was expressed (foot-pad thickness^24 h−foot-pad thickness^0 h)×10^−3 cm.

[3] = test system: collagen induced arthritis (CIA); experiment: Collagen induced arthritis, clinical evaluation; assay type: in vivo, B10.QxDBA/1 female mice
Description: B10.QxDBA/1 female mice were used in all experiments. They were aged from 11-16 weeks. In all experiments the mice were age-matched. The mice were kept in the animal facility at the University of Göteborg, under standard conditions of light and temperature and fed standard laboratory chow and water ad libitum.
Rat type II collagen (CII) from a chondrosarcoma was prepared by pepsin digestion and purification as described previously (9). The preparation of CII was dissolved at a concentration of 2 mg/ml in 0.1M acetic acid and stored at 4° C. Arthritis was induced by intradermal injection at the base of the tail with 50 μl of 100 μg CII emulsified with an equal volume of complete Freuid/s adjuvant (CFA; containing Mycobacterium butyricum, Difco, Detroit, Mich.). Mice were boosted with the same volume and concentrations of CII emulsified in incomplete Freund's adjuvant (IFA; Difco) 21 days after the first immunization.
Mice were primed and booster-immunized with CII. They were divided into three groups. […] The third group of mice were controls (n—17), receiving treatment with PBS. Prior to the start of the experiment, six mice in each group were bled for hematological analyses.
At regular time points the mice were examined concerning development of arthritis. Arthritis was defined as visible joint erythema and/or swelling of at least one joint. To evaluate the intensity of arthritis, a clinical scoring system of 0 to 3 points for each limb was used (1 point, mild swelling and/or erythema; 2 points, moderate swelling and erythema; 3 points, marked swelling and erythema). The arthritic index was constructed by adding the scores from all four limbs for each animal (11).

SMILES: COc1cc([C@@H]2c3cc4c(cc3[C@@H](O[C@@H]3O[C@@H]5CO[C@@H](C)O[C@H]5[C@H](O)[C@H]3O)[C@H]3COC(=O)[C@H]23)OCO4)cc(OC)c1O [Etoposide]
- IL-6, ConA stimulated (IL-6): 455 ± 85^b pg/ml
- IL-6, TSST-1 stimulated (IL-6): 255 ± 66b pg/ml
- Mice with cartilage and bone destructions ([1]; 6 days after S. aureus inoculation, controls 8 out of 10): 4 out of 8
- Mice with synovial hypertrophy ([1]; 6 days after S. aureus inoculation, controls 9 out of 10): 4 out of 8
- Numbers of Mac-3 positive cells in joints ([1]; S. aureus infected, etoposide vs PBS, data not shown): did not show any significant differences
- Foot-pad swelling, olive oil induced inflammation [2]: 128±131 ×10^−3 cm
- Arthritic score of diseased mice ([3]; Etoposide pretreated, Day 46): 0
- Arthritic score of diseased mice ([3]; Etoposide pretreated, Day 53): 0
- Arthritic score of diseased mice ([3]; Etoposide pretreated, Day 61): 0
- Arthritic score of diseased mice ([3]; Etoposide treated (from day 40), Day 46, mean ± SEM): 2.4 ± 0.2 (n = 5)
- Arthritic score of diseased mice ([3]; Etoposide treated (from day 40), Day 53, mean ± SEM): 5.4 ± 1.3 (n = 5)
- Arthritic score of diseased mice ([3]; Etoposide treated (from day 40), Day 61, mean ± SEM): 5.6 ± 1.3 (n = 5)
- Mice with clinical signs of arthritis ([3]; Etoposide-pretreated: 12.5 mg/kg from two days prior to CII immunization, then 4 days weekly, almost nine weeks): none of 19
- Mice exhibiting arthritis at the end of the experiment ([3]; Etoposide-treated: 12.5 mg/kg 4 days per week from 40 days after immunization, 5 of 17, controls 53%): 29%
- Changes in weight ([3]; between or within the groups (pretreated, treated, controls)): No significant changes in weight
- Reduction of frequency of disease ([3]; mice treated with etoposide at the onset of clinical arthritis): 50%
